Measurements reported in patent US10336721B2, “Biaryltriazole inhibitors of macrophage migration inhibitory factor” (YALE UNIVERSITY, priority 2015, dated 2019).
Values after ≈ are worked out from the molar mass of the structure shown.

System: not listed separately
Test: Aqueous solubility
Assay type: physicochemical
Conditions: aqueous solvent (not further specified), μg compound/mL solvent

Compound	solubility
COCCOc1ccc2nc(-c3cn(-c4ccc(O)cc4)nn3)ccc2c1 [Example 2, 4-(4-(6-(2-Methoxyethoxy)quinolin-2-yl)-1H-1,2,3-triazol-1-yl)phenol]	3.6 µg/mL (≈ 9.93 µM)
Oc1ccc(-n2cc(-c3ccc4cc(OCCOCCN5CCOCC5)ccc4n3)nn2)cc1 [Example 21, 4-(4-(6-(2-(2-Morpholinoethoxy)ethoxy)quinolin-2-yl)-1H-1,2,3-triazol-1-yl)phenol]	48.5 µg/mL (≈ 105 µM)
NCCOCCOc1ccc2nc(-c3cn(-c4ccc(O)cc4)nn3)ccc2c1 [Example 28, 4-(4-(6-(2-(2-Aminoethoxy)ethoxy)quinolin-2-yl)-1H-1,2,3-triazol-1-yl)phenol]	13.9 µg/mL (≈ 35.5 µM)
O=C(O)c1cccc(Oc2cccc3nc(-c4cn(-c5ccc(O)c(F)c5)nn4)ccc23)c1 [Example 32, 3-((2-(1-(3-Fluoro-4-hydroxyphenyl)-1H-1,2,3-triazol-4-yl)quinolin-5-yl)oxy)benzoic acid]	47.2 µg/mL (≈ 107 µM)

The next lines start with the values.

solubility	Compound
2.2 µg/mL (≈ 7.63 µM)	Oc1ccc(-n2cc(-c3ccc4ccccc4n3)nn2)cc1 [Example 1, 4-(4-(Quinolin-2-yl)-1H-1,2,3-triazol-1-yl)phenol]
27.2 µg/mL (≈ 56.7 µM)	Oc1ccc(-n2cc(-c3ccc4cc(OCCOCCN5CCOCC5)ccc4n3)nn2)cc1F [Example 22, 2-Fluoro-4-(4-(6-(2-(2-morpholinoethoxy)ethoxy)quinolin-2-yl)-1H-1,2,3-triazol-1-yl)phenol]
9.1 µg/mL (≈ 22.2 µM)	NCCOCCOc1ccc2nc(-c3cn(-c4ccc(O)c(F)c4)nn3)ccc2c1 [Example 34, 4-(4-(6-(2-(2-Aminoethoxy)ethoxy)quinolin-2-yl)-1H-1,2,3-triazol-1-yl)-2-fluorophenol]
19.2 µg/mL (≈ 47 µM)	O=C(O)CCCOc1ccc2nc(-c3cn(-c4ccc(O)c(F)c4)nn3)ccc2c1 [Example 43, 4-((2-(1-(3-Fluoro-4-hydroxyphenyl)-1H-1,2,3-triazol-4-yl)quinolin-6-yl)oxy)butanoic acid]

Molecular target: human MIF (Homo sapiens (Human), UniProt P14174)
Sequence (P14174 2-115): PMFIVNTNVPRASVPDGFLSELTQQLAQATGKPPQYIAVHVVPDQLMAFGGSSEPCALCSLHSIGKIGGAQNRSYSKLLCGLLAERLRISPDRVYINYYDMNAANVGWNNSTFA
Test: Inhibition of tautomerase activity of human MIF (HPP substrate)
Assay type: biochemical
Conditions: MIF tautomerase, HPP substrate, 50 nM MIF

Compound	Ki
COCCOc1ccc2nc(-c3cn(-c4ccc(F)cc4)nn3)ccc2c1 [Example 3, 2-(1-(4-Fluorophenyl)-1H-1,2,3-triazol-4-yl)-6-(2-methoxyethoxy)quinoline]	8900 nM
Cc1cc2ccccc2nc1-c1cn(-c2ccc(O)cc2)nn1 [Example 11, 4-(4-(3-Methylquinolin-2-yl)-1H-1,2,3-triazol-1-yl)phenol]	7300 nM
Cc1cc(-c2cn(-c3ccc(O)cc3)nn2)nc2ccccc12 [Example 12, 4-(4-(4-Methylquinolin-2-yl)-1H-1,2,3-triazol-1-yl)phenol]	2300 nM
COc1cccc2ccc(-c3cn(-c4ccc(F)cc4)nn3)nc12 [Example 14, 2-(1-(4-Fluorophenyl)-1H-1,2,3-triazol-4-yl)-8-methoxyquinoline]	56000 nM
COCCOc1cccc2ccc(-c3cn(-c4ccc(F)cc4)nn3)nc12 [Example 15, 2-(1-(4-Fluorophenyl)-1H-1,2,3-triazol-4-yl)-8-(3-methoxyethoxy)quinoline]	64000 nM
Oc1ccc(-n2cc(-c3ccc4cccc(Oc5ccccc5)c4n3)nn2)cc1 [Example 17, 4-(4-(8-Phenoxyquinolin-2-yl)-1H-1,2,3-triazol-1-yl)phenol]	2950 nM
Oc1ccc(-n2cc(-c3ccc4c(Oc5ccccc5)cccc4n3)nn2)cc1 [Example 18, 4-(4-(5-Phenoxyquinolin-2-yl)-1H-1,2,3-triazol-1-yl)phenol]	370 nM
Oc1ccc(-n2cc(-c3ccc4cc(OCCCN5CCOCC5)ccc4n3)nn2)cc1 [Example 19, 4-(4-(6-(3-Morpholinopropoxy)quinolin-2-yl)-1H-1,2,3-triazol-1-yl)phenol]	1950 nM
Cc1cc2cc(OCCCN3CCOCC3)ccc2nc1-c1cn(-c2ccc(O)cc2)nn1 [Example 20, 4-(4-(3-Methyl-6-(3-morpholinopropoxy)quinolin-2-yl)-1H-1,2,3-triazol-1-yl)phenol]	3120 nM
Fc1ccc(-n2cc(-c3ccc4cc(OCCOCCN5CCOCC5)ccc4n3)nn2)cc1 [Example 23, 4-(2-(2-((2-(1-(4-Fluorophenyl)-1H-1,2,3-triazol-4-yl)quinolin-6-yl)oxy)ethoxy)ethyl)morpholine]	29600 nM
COCCOc1cccc(Oc2cccc3nc(-c4cn(-c5ccc(O)c(F)c5)nn4)ccc23)c1 [Example 25, 2-Fluoro-4-(4-(5-(3-(2-methoxyethoxy)phenoxy)quinolin-2-yl)-1H-1,2,3-triazol-1-yl)phenol]	82 nM
Oc1ccc(-n2cc(-c3ccc4cccnc4n3)nn2)cc1 [Example 26, 4-(4-(1,8-Naphthyridin-2-yl)-1H-1,2,3-triazol-1-yl)phenol]	1480 nM
Oc1ccc(-n2cc(-c3ccc4ccc(OCCOCCN5CCOCC5)cc4n3)nn2)cc1 [Example 29, 4-(4-(7-(2-(2-Morpholinoethoxy)ethoxy)quinolin-2-yl)-1H-1,2,3-triazol-1-yl)phenol]	850 nM
Oc1c(F)cc(-n2cc(-c3ccc4cc(OCCOCCN5CCOCC5)ccc4n3)nn2)cc1F [Example 33, 2,6-Difluoro-4-(4-(6-(2-(2-morpholinoethoxy)ethoxy)quinolin-2-yl)-1H-1,2,3-triazol-1-yl)phenol]	3750 nM
O=C(O)c1ccc(Oc2cccc3nc(-c4cn(-c5ccc(O)c(F)c5)nn4)ccc23)cc1 [Example 35, 4-((2-(1-(3-Fluoro-4-hydroxyphenyl)-1H-1,2,3-triazol-4-yl)quinolin-5-yl)oxy)benzoic acid]	110 nM
O=C(O)c1cccc(Oc2cccc3nc(-c4cn(-c5ccc(F)c(F)c5)nn4)ccc23)c1 [Example 36, 3-((2-(1-(3,4-Difluorophenyl)-1H-1,2,3-triazol-4-yl)quinolin-5-yl)oxy)benzoic acid]	4930 nM
NCc1cccc(Oc2cccc3nc(-c4cn(-c5ccc(O)c(F)c5)nn4)ccc23)c1 [Example 37, 4-(4-(5-(3-(Aminomethyl)phenoxy)quinolin-2-yl)-1H-1,2,3-triazol-1-yl)-2-fluorophenol]	568 nM
O=C(O)COc1ccc2ccc(-c3cn(-c4ccc(O)c(F)c4)nn3)nc2c1 [Example 41, 2-((2-(1-(3-Fluoro-4-hydroxyphenyl)-1H-1,2,3-triazol-4-yl)quinolin-7-yl)oxy)acetic acid]	2240 nM
O=C(O)CCCOc1ccc2ccc(-c3cn(-c4ccc(O)c(F)c4)nn3)nc2c1 [Example 42, 4-((2-(1-(3-Fluoro-4-hydroxyphenyl)-1H-1,2,3-triazol-4-yl)quinolin-7-yl)oxy)butanoic acid]	43 nM

More lines, now with the values ahead:

Ki	Compound
360 nM	COCCOc1ccc(Oc2cccc3nc(-c4cn(-c5ccc(O)cc5)nn4)ccc23)cc1 [Example 24, 4-(4-(5-(4-(2-Methoxyethoxy)phenoxy)quinolin-2-yl)-1H-1,2,3-triazol-1-yl)phenol]
290 nM	Oc1ccc(-n2cc(-c3ccc4ccc(OCCOCCN5CCOCC5)cc4n3)nn2)cc1F [Example 30, 2-Fluoro-4-(4-(7-(2-(2-morpholinoethoxy)ethoxy)quinolin-2-yl)-1H-1,2,3-triazol-1-yl)phenol]
2350 nM	COCCOc1ccc2nc(-c3cn(-c4ccc(O)cc4)nn3)ncc2c1 [Example 31, 4-(4-(6-(2-Methoxyethoxy)quinazolin-2-yl)-1H-1,2,3-triazol-1-yl)phenol]
128 nM	Oc1ccc(-n2cc(-c3ccc4c(Oc5cccc(OCCOCCN6CCOCC6)c5)cccc4n3)nn2)cc1F [Example 38, 2-Fluoro-4-(4-(5-(3-(2-(2-morpholinoethoxy)ethoxy)phenoxy)quinolin-2-yl)-1H-1,2,3-triazol-1-yl)phenol]
296 nM	O=C(O)c1ccc(Oc2cccc3ccc(-c4cn(-c5ccc(O)c(F)c5)nn4)nc23)cc1 [Example 39, 4-((2-(1-(3-Fluoro-4-hydroxyphenyl)-1H-1,2,3-triazol-4-yl)quinolin-8-yl)oxy)benzoic acid]
112 nM	O=C(O)c1cccc(Oc2cccc3ccc(-c4cn(-c5ccc(O)c(F)c5)nn4)nc23)c1 [Example 40, 3-((2-(1-(3-Fluoro-4-hydroxyphenyl)-1H-1,2,3-triazol-4-yl)quinolin-8-yl)oxy)benzoic acid]

Same assay, conditions: read-out: % inhibition at 10 μM

Compound	inhibition at 10 µM
COCCOc1ccc2nc(-c3cn(-c4ccc(OC)cc4)nn3)ccc2c1 [Example 6, 6-(2-Methoxyethoxy)-2-(1-(4-methoxyphenyl)-1H-1,2,3-triazol-4-yl)quinoline]	0%
COCCOc1ccc2nc(-c3cn(-c4ccc(C#N)cc4)nn3)ccc2c1 [Example 7, 4-(4-(6-(2-Methoxyethoxy)quinolin-2-yl)-1H-1,2,3-triazol-1-yl)benzonitrile]	8%
COCCOc1ccc2nc(-c3cn(-c4ccc(C(N)=O)cc4)nn3)ccc2c1 [Example 8, 4-(4-(6-(2-Methoxyethoxy)quinolin-2-yl)-1H-1,2,3-triazol-1-yl)benzamide]	0%
Oc1ccc(-n2cc(-c3ccc4cccc(Cl)c4n3)nn2)cc1 [Example 13, 4-(4-(8-Chloroquinolin-2-yl)-1H-1,2,3-triazol-1-yl)phenol]	16%
COc1ccc(-c2cccc3ccc(-c4cn(-c5ccc(O)cc5)nn4)nc23)cc1 [Example 16, 4-(4-(8-(4-Methoxyphenyl)quinolin-2-yl)-1H-1,2,3-triazol-1-yl)phenol]	21%
Clc1ccc(-n2cc(-c3ccc4cccnc4n3)nn2)cc1 [Example 27, 2-(1-(4-Chlorophenyl)-1H-1,2,3-triazol-4-yl)-1,8-naphthyridine]	9%

Second part, the molecule after the results:

inhibition at 10 µM	Compound
3%	COCCOc1ccc(-c2cn(-c3ccc(Cl)cc3)nn2)nc1 [Example 4, 2-(1-(4-Chlorophenyl)-1H-1,2,3-triazol-4-yl)-5-(2-methoxyethoxy)pyridine]
13%	COCCOc1ccc2nc(-c3cn(-c4ccc(N)cc4)nn3)ccc2c1 [Example 5, 4-(4-(6-(2-Methoxyethoxy)quinolin-2-yl)-1H-1,2,3-triazol-1-yl)aniline]
15%	COCCOc1ccc2nc(-c3cn(-c4ccc(O)c(C)c4)nn3)ccc2c1 [Example 9, 4-(4-(6-(2-Methoxyethoxy)quinolin-2-yl)-1H-1,2,3-triazol-1-yl)-2-methylphenol]
8%	COCCOc1ccc2nc(-c3cn(-c4ccc(O)c(OC)c4)nn3)ccc2c1 [Example 10, 2-Methoxy-4-(4-(6-(2-methoxyethoxy)quinolin-2-yl)-1H-1,2,3-triazol-1-yl)phenol]
